SMILES strings stand for the structures.

The test system of assay [1] is symmetric di-methyl arginine in Z-138 cells. The experiment in a line: Z-138 Methylation Assay (In Cell Western for symmetric di-methyl arginine and DNA content). The assay is classed as cell-based. The settings on record: Homo sapiens, read-out: ICW EC50. From the text:
Z-138 suspension cells were purchased from ATCC (American Type Culture Collection, Manassas, Va.). RPMI/Glutamax medium, penicillin-streptomycin, heat inactivated fetal bovine serum, and D-PBS were purchased from Life Technologies, Grand Island, N.Y., USA. Odyssey blocking buffer, 800CW goat anti-rabbit IgG (H+L) antibody, and Licor Odyssey infrared scanner were purchased from Licor Biosciences, Lincoln, Nebr., USA. Symmetric di-methyl arginine antibody was purchased from EMD Millipore, Billerica, Mass., USA. 16% Paraformaldehyde was purchased from Electron Microscopy Sciences, Hatfield, Pa., USA.
Z-138 suspension cells were maintained in growth medium (RPMI 1640 supplemented with 10% v/v heat inactivated fetal bovine serum and 100 units/mL penicillin-streptomycin) and cultured at 37° C. under 5% CO2.
Cell Treatment, in Cell Western (ICW) for Detection of Symmetric Di-Methyl Arginine and DNA Content.
Z-138 cells were seeded in assay medium at a concentration of 50,000 cells per mL to a 384-well cell culture plate with 50 μL per well. Compound (100 nL) from 384 well source plates was added directly to 384 well cell plate. Plates were incubated at 37° C., 5% CO2 for 96 hours. After four days of incubation, 40 μL of cells from incubated plates were added to poly-D-lysine coated 384 well culture plates (BD Biosciences 356697). Plates were incubated at room temperature for 30 minutes then incubated at 37° C., 5% CO2 for 5 hours. After the incubation, 40 μL per well of 8% paraformaldehyde in PBS (16% paraformaldahyde was diluted to 8% in PBS) was added to each plate and incubated for 30 minutes. Plates were transferred to a Biotek 405 plate washer and washed 5 times with 100 μL per well of wash buffer (1×PBS with 0.1% Triton X-100 (v/v)). Next 30 μL per well of Odyssey blocking buffer were added to each plate and incubated 1 hour at room temperature. Blocking buffer was removed and 20 μL per well of primary antibody was added (symmetric di-methyl arginine diluted 1:100 in Odyssey buffer with 0.1% Tween 20 (v/v)) and plates were incubated overnight (16 hours) at 4° C. Plates were washed 5 times with 100 μL per well of wash buffer. Next 20 μL per well of secondary antibody was added (1:200 800CW goat anti-rabbit IgG (H+L) antibody, 1:1000 DRAQ5 (Biostatus limited) in Odyssey buffer with 0.1% Tween 20 (v/v)) and incubated for 1 hour at room temperature. The plates were washed 5 times with 100 μL per well wash buffer then 1 time with 100 μL per well of water. Plates were allowed to dry at room temperature then imaged on the Licor Odyssey machine which measures integrated intensity at 700 nm and 800 nm wavelengths. Both 700 and 800 channels were scanned.
First, the ratio for each well was determined by:
Each plate included fourteen control wells of DMSO only treatment (minimum inhibition) as well as fourteen control wells for maximum inhibition treated with 3 μM of a reference compound (Background wells). The average of the ratio values for each control type was calculated and used to determine the percent inhibition for each test well in the plate. Reference compound was serially diluted three-fold in DMSO for a total of nine test concentrations, beginning at 3 μM. Percent inhibition was determined and IC50 curves were generated using triplicate wells per concentration of compound.

Assay [2] addresses T1, PRMT5/MEP50 (Homo sapiens, UniProt O14744).
T1 construct: Flag-PRMT5; made in house; host or cells: Spodoptera frugiperda (SF9), baculovirus
The experiment in a line: PRMT5 Biochemical Assay (PRMT5/MEP50 enzyme assay on histone H4 peptide substrate, 3H-SAM Flashplate). The settings on record: PRMT5 biochemical assay; read-out: Biochemical IC50. The method, boiled down: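 Sf9-expressed Flag-PRMT5/6His-MEP50 preincubated with compound 30 min at 25 °C, then methylation of biotinylated H4 1-15 peptide started with ³H-SAM in 20 mM Bicine pH 7.6, 1 mM TCEP, 0.005% BSG, 0.002% Tween20.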

The subject of assay [3] is Z-138 cells. The assay can be described thus: Z-138 Proliferation Assay (Cell Titer Glo, 5 days). The assay is classed as cell-based. The settings on record: Homo sapiens, 120 h. From the text: Z-138 Proliferation Assay
Z-138 suspension cells were purchased from ATCC (American Type Culture Collection, Manassas, Va.). RPMI/Glutamax medium, penicillin-streptomycin, heat inactivated fetal bovine serum were purchased from Life Technologies, Grand Island, N.Y., USA. V-bottom polypropylene 384-well plates were purchased from Greiner Bio-One, Monroe, N.C., USA. Cell culture 384-well white opaque plates were purchased from Perkin Elmer, Waltham, Mass., USA. Cell-Titer Glo® was purchased from Promega Corporation, Madison, Wis., USA. SpectraMax M5 plate reader was purchased from Molecular Devices LLC, Sunnyvale, Calif., USA.
Z-138 suspension cells were maintained in growth medium (RPMI 1640 supplemented with 10% v/v heat inactivated fetal bovine serum and cultured at 37° C. under 5% CO2. Under assay conditions, cells were incubated in assay medium (RPMI 1640 supplemented with 10% v/v heat inactivated fetal bovine serum and 100 units/mL penicillin-streptomycin) at 37° C. under 5% CO2.
For the assessment of the effect of compounds on the proliferation of the Z-138 cell line, exponentially growing cells were plated in 384-well white opaque plates at a density of 10,000 cells/ml in a final volume of 50 μl of assay medium. A compound source plate was prepared by performing triplicate nine-point 3-fold serial dilutions in DMSO, beginning at 10 mM (final top concentration of compound in the assay was 20 μM and the DMSO was 0.2%). A 100 nL aliquot from the compound stock plate was added to its respective well in the cell plate. […] After addition of compounds, assay plates were incubated for 5 days at 37° C., 5% CO2, relative humidity >90%.
Cell viability was measured by quantitation of ATP present in the cell cultures, adding 35 μl of Cell Titer Glo® reagent to the cell plates. Luminescence was read in the SpectraMax M5 microplate reader. The concentration of compound inhibiting cell viability by 50% was determined using a 4-parametric fit of the normalized dose response curves.

T1 sequence (O14744 with tags, fused parts or gaps): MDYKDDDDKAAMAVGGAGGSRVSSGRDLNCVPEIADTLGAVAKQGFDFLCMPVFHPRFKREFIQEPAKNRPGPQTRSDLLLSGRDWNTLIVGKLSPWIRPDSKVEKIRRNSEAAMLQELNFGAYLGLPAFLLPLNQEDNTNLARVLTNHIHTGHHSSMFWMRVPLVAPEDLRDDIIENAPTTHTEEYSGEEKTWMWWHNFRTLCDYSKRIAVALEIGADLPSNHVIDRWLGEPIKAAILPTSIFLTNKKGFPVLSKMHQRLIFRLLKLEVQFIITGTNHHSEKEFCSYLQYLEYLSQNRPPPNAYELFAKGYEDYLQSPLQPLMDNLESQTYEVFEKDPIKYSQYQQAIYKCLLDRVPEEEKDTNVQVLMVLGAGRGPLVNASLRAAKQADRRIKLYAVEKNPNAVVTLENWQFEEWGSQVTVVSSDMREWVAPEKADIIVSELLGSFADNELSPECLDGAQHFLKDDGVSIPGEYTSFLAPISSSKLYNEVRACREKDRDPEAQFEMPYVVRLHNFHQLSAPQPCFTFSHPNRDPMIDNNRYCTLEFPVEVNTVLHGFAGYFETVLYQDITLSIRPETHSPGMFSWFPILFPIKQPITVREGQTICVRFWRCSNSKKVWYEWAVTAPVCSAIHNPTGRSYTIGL
T1 sequence (Q9BQA1 with tags, fused parts or gaps partner limits assumed): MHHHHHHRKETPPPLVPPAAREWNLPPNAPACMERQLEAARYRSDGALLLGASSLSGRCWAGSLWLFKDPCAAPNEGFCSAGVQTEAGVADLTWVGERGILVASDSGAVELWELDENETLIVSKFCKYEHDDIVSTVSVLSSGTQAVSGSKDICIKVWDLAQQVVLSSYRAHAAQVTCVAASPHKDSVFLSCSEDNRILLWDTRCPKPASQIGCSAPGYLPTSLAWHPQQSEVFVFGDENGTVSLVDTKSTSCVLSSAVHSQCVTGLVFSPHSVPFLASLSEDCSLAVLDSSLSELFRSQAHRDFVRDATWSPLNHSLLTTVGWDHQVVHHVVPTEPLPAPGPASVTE

For `CN(C)c1cccc2c(S(=O)(=O)N[C@H]3CC(=O)N(c4ccccc4)C3)cccc12` [Compound 3-4, (S)-5-(dimethylamino)-N-(5-oxo-1-phenylpyrrolidin-3-yl)naphthalene-1-sulfonamide], the values for the EC50 in assay [1] and in assay [3] were under 100 nM and 1000 to 10000 nM, respectively. In addition, the concentration for half-maximal inhibition (IC50) in assay [2] was under 100 nM.
Turning to `CN(C)c1cccc2c(S(=O)(=O)NC3CN(Cc4ccccc4)C3)cccc12` [Compound 3-5, N-(1-benzylazetidin-3-yl)-5-(dimethylamino)naphthalene-1-sulfonamide], the figures for the EC50 in assay [1] and in assay [3] were 101 to 1000 nM and 10000 to 50000 nM, respectively. Moreover, the half-inhibitory concentration (IC50) in assay [2] was under 100 nM.
As to `CN(C)c1cccc2c(S(=O)(=O)NCCC(N)c3ccccc3)cccc12` (stereo not drawn) [Compound 3-7], the half-maximal effective concentration (EC50) in assay [1] fell in the range of 101 to 1000 nM; in assay [3] it was 10000 to 50000 nM. The IC50 in assay [2] was under 100 nM.
The corresponding values for `O=C(NC[C@H](O)CN1CCc2ccccc2C1)c1cc(NC2CCN(CC(F)(F)F)CC2)ncn1` [Compound 3-9] are under 100 nM, 101 to 1000 nM and under 100 nM.
Consider `O=C(NC[C@H](O)CN1Cc2ccccc2C1)c1cc(NC2COC2)ncn1` [Compound 3-11], for which the concentration for a half-maximal effect (EC50) in assay [1] was in the range of 101 to 1000 nM; in assay [3], 10000 to 50000 nM. Moreover, the IC50 in assay [2] fell in the range of 101 to 1000 nM.
With `Cc1cn(Cc2ccccc2)c(CN)n1` [Compound 3-13], the results for the EC50 in assay [1] and in assay [3] were over 1000 nM and over 5000 nM, respectively. For the same molecule, the IC50 in assay [2] lay within 101 to 1000 nM.
The corresponding values for `CC(=O)c1ccc(NC(=O)CC2NC(N3CCN(Cc4ccccc4)CC3)=NC2=O)cc1` (stereo not drawn) [Compound 3-14] are over 20000 nM, over 20000 nM and 1000 to 10000 nM.
The corresponding values for `Cc1ccccc1N1CC(NS(=O)(=O)c2cccc3c(N(C)C)cccc23)CC1=O` (stereo not drawn) [Compound 4-4] are 101 to 1000 nM, 10000 to 50000 nM and 101 to 1000 nM.
Turning to `CC(C)(C)C(=O)N1CCN(c2nc(NC3COC3)cc(C(=O)NC[C@H](O)CN3CCc4ccccc4C3)n2)CC1` [Compound 4-9], the EC50 in assay [1] and in assay [3] was under 100 nM each time. The IC50 in assay [2] is under 100 nM.
Take `O=C(NC[C@H](O)CN1Cc2ccccc2C1)c1cc(NC2CNC2)ncn1` [Compound 4-11]: the EC50 in assay [1] was 101 to 1000 nM; in assay [3] it was over 1000 nM. For the same molecule, in assay [2], the IC50 was in the range of 101 to 1000 nM.
On to `COc1ccc(Cn2c(CN3CCCCC3)cnc2CN)cc1` [Compound 4-13], for which the EC50 in assay [1] is over 1000 nM; in assay [3], over 5000 nM. Moreover, in assay [2], the concentration for half-maximal inhibition (IC50) is 10000 to 50000 nM.
For `CN(C)c1cccc2c(S(=O)(=O)NC3CC(=O)N(c4ccccc4F)C3)cccc12` (stereo not drawn) [Compound 5-4], the EC50 in assay [1] lay in the range of 101 to 1000 nM; in assay [3], 1000 to 10000 nM. Further, the IC50 in assay [2] was under 100 nM.
Turning to `CN(C)c1cccc2c(S(=O)(=O)NC[C@@H](N)Cc3ccccc3)cccc12` [Compound 5-7, (S)—N-(2-amino-3-phenylpropyl)-5-(dimethylamino)naphthalene-1-sulfonamide], the values for the half-maximal effective concentration (EC50) in assay [1] and in assay [3] were 101 to 1000 nM and 1000 to 10000 nM, respectively. Besides, the IC50 in assay [2] was under 100 nM.
Turning to `CN1CCC(Nc2ccnc(C(=O)NC[C@H](O)CN3CCc4ccccc4C3)c2)CC1` [Compound 5-9], the EC50 was under 100 nM in assay [1] and over 5000 nM in assay [3]. Also, the IC50 in assay [2] was under 100 nM.
For the molecule `CC(=O)N1CC(Nc2cc(C(=O)NC[C@H](O)CN3Cc4ccccc4C3)ncn2)C1` [Compound 5-11], the EC50 in assay [1] lay in the range of 101 to 1000 nM; in assay [3] it was 1000 to 10000 nM. Further, the IC50 in assay [2] is under 100 nM.
Regarding `CC(=O)N1CC(Nc2cc(C(=O)NCC(C)(O)CN3CCc4ccccc4C3)ncn2)C1` (stereo not drawn) [Compound 6-9], the EC50 in assay [1] was 101 to 1000 nM; in assay [3], over 5000 nM. Further, the IC50 in assay [2] lay within 101 to 1000 nM.
Consider `O=C(NC[C@H](O)CN1Cc2ccccc2C1)c1cncc(NC2CCN(CC(F)(F)F)CC2)c1` [Compound 6-11], for which the EC50 is 101 to 1000 nM in assay [1] and 10000 to 50000 nM in assay [3]. In addition, the IC50 in assay [2] lay within 101 to 1000 nM.
Take `NCc1nccn1Cc1cccc(Br)c1` [Compound 6-13]: the EC50 in assay [1] is over 1000 nM; in assay [3] it was over 5000 nM. Moreover, the IC50 in assay [2] lay within 10000 to 50000 nM.
The corresponding values for `CN(C)c1cccc2c(S(=O)(=O)NC3CC(=O)N(c4ccccc4N)C3)cccc12` (stereo not drawn) [Compound 7-4] are under 100 nM, 1000 to 10000 nM and under 100 nM.
Consider `CC(=O)N1CC(Nc2cc(C(=O)NC[C@@H](O)CN3CCc4ccccc4C3)ncn2)C1` [Compound 7-9], for which the EC50 in assay [1] is under 100 nM; in assay [3] it was 1000 to 10000 nM. For the same molecule, the IC50 in assay [2] is under 100 nM.
`O=C(NC[C@H](O)CN1Cc2ccccc2C1)c1cncc(NC2CCOCC2)c1` [Compound 7-11]: the EC50 was 101 to 1000 nM in assay [1] and 1000 to 10000 nM in assay [3]. Further, the IC50 in assay [2] fell in the range of 101 to 1000 nM.
As for `CN(C)c1cccc2c(S(=O)(=O)NC3CC(=O)N(c4ccccc4Cl)C3)cccc12` (stereo not drawn) [Compound 8-4], the EC50 fell in the range of 1000 to 10000 nM in assay [1] and 10000 to 50000 nM in assay [3]. In assay [2], the IC50 lay within 101 to 1000 nM.
On to `CC(=O)N1CC(Nc2cc(C(=O)N(C)C[C@H](O)CN3CCc4ccccc4C3)ncn2)C1` [Compound 8-9], for which the EC50 in assay [1] was under 100 nM; in assay [3], 1000 to 10000 nM. Moreover, the 50% inhibitory concentration (IC50) in assay [2] lay in the range of 101 to 1000 nM.
The corresponding values for `O=C(NC[C@H](O)CN1Cc2ccccc2C1)c1cc(NC2COC2)nc(N2CCOCC2)n1` [Compound 8-11] are under 100 nM, 1000 to 10000 nM and under 100 nM.
The corresponding values for `CC(=O)N1CCC(Nc2cc(C(=O)N(C)C[C@H](O)CN3CCc4ccccc4C3)ncn2)CC1` [Compound 9-9] are 101 to 1000 nM, 101 to 1000 nM and under 100 nM.
The corresponding values for `O=C(NC[C@H](O)CN1Cc2ccccc2C1)c1cncc(NC2CCN(CC(F)(F)F)C2)c1` (stereo partly drawn) [Compound 9-11] are 101 to 1000 nM, over 20000 nM and 101 to 1000 nM.
As for `CC(=O)N1CCC(Nc2cc(C(=O)N(C)C[C@H](O)CN3CCc4ccccc4C3)ccn2)CC1` [Compound 10-9], the EC50 in assay [1] was under 100 nM; in assay [3] it was 101 to 1000 nM. The IC50 in assay [2] was under 100 nM.
For the molecule `CC(=O)N1CCC(Nc2cc(C(=O)NC(C)C(O)CN3CCc4ccccc4C3)ccn2)CC1` (stereo not drawn) [Compound 11-9], the EC50 is under 100 nM in assay [1] and 101 to 1000 nM in assay [3]. Further, the IC50 in assay [2] was under 100 nM.

The values are drawn from patent publication US20170198006A1, “PRMT5 INHIBITORS AND USES THEREOF” (Epizyme, Inc., priority 2014, published 2017).
